Read-outs that look alike come from different tables or passages of the source.
Experiments:
[1] = cited from earlier work
[2] = Sweetness enhancement of artificial sweetener acesulfame potassium by naringenin; assay type: in vivo, human; conditions: acesulfame potassium (120 ppm), naringenin 100 ppm
Procedure: (§1) Sucrose solutions of different concentrations were prepared in water. A naringenin (AuNutra Industries Inc) solution was also prepared in water (100 ppm) and used in all of the following examples. In addition, the sweetness enhancement of (i) sucralose (40 ppm), (ii) aspartame (120 ppm) and (iii) acesulfame potassium (120 ppm) by naringenin was also evaluated, respectively.

[3] = Flavor profile of Reb A water solution (10 ppm) plus naringenin of different concentrations; assay type: in vivo, human
Procedure: A Reb A water solution (10 ppm) was prepared and used as the base. Different amount of naringenin was added to the base to obtain naringenin samples of a series of concentrations ranging from 10 to 1000 ppm.

[4] = Paired comparison of sweetness, sucrose solutions in water with or without naringenin; assay type: in vivo, human; conditions: for Number of Samples Rated Sweeter: 26 paired samples
Text: The term “sweetness” or “sweetness intensity” is understood to mean the relative strength of sweet sensation as observed or experienced by an individual, e.g., a human, or a degree or amount of sweetness detected by a taster, for example on the scale from 0 (none) to 8 (very strong) used in sensory evaluations according to the procedure described in American Society for Testing Materials, Special Technical Publication-434: “Manual on Sensory Testing Methods,” ASTM International, West Conshohocken, Pa. (1996). Sucrose solutions of different concentrations were prepared in water. A naringenin (AuNutra Industries Inc) solution was also prepared in water (100 ppm) and used in all of the following examples. Each test group contained 26 paired samples. In each paired samples, a sucrose solution of a higher concentration was compared for sweetness against that of a lower concentration but in combination with naringenin. The results were represented by the numbers of samples rated as sweeter in paired comparisons, which were then statistically analyzed using binomial distribution for two-sided comparisons at 95% confidence level.

[5] = Sweetness enhancement of artificial sweetener aspartame by naringenin; assay type: in vivo, human; conditions: aspartame (120 ppm), naringenin 100 ppm
Procedure: as §1

[6] = Paired comparison of sweetness, Reb A solutions in water with or without naringenin; assay type: in vivo, human
Text: The term “sweetness” or “sweetness intensity” is understood to mean the relative strength of sweet sensation as observed or experienced by an individual, e.g., a human, or a degree or amount of sweetness detected by a taster, for example on the scale from 0 (none) to 8 (very strong) used in sensory evaluations according to the procedure described in American Society for Testing Materials, Special Technical Publication-434: “Manual on Sensory Testing Methods,” ASTM International, West Conshohocken, Pa. (1996). Sucrose solutions of different concentrations were prepared in water. A naringenin (AuNutra Industries Inc) solution was also prepared in water (100 ppm) and used in all of the following examples. Each test group contained 26 paired samples. In each paired samples, a sucrose solution of a higher concentration was compared for sweetness against that of a lower concentration but in combination with naringenin. The results were represented by the numbers of samples rated as sweeter in paired comparisons, which were then statistically analyzed using binomial distribution for two-sided comparisons at 95% confidence level. The evaluation is reported in the following: Reb A solutions of different concentrations were prepared in water and the sweetness enhancement by naringenin was similarly evaluated.

[7] = cited from earlier work; remark: listed apart in the source
[8] = Sweetness enhancement of artificial sweetener sucralose by naringenin; assay type: in vivo, human; conditions: sucralose (40 ppm), naringenin 100 ppm
Procedure: as §1

[9] = Paired comparison of sweetness, sucrose & Reb A combination with or without naringenin; assay type: in vivo, human
Text: The term “sweetness” or “sweetness intensity” is understood to mean the relative strength of sweet sensation as observed or experienced by an individual, e.g., a human, or a degree or amount of sweetness detected by a taster, for example on the scale from 0 (none) to 8 (very strong) used in sensory evaluations according to the procedure described in American Society for Testing Materials, Special Technical Publication-434: “Manual on Sensory Testing Methods,” ASTM International, West Conshohocken, Pa. (1996). Sucrose solutions of different concentrations were prepared in water. A naringenin (AuNutra Industries Inc) solution was also prepared in water (100 ppm) and used in all of the following examples. Each test group contained 26 paired samples. In each paired samples, a sucrose solution of a higher concentration was compared for sweetness against that of a lower concentration but in combination with naringenin. The results were represented by the numbers of samples rated as sweeter in paired comparisons, which were then statistically analyzed using binomial distribution for two-sided comparisons at 95% confidence level. The evaluation is reported in the following: The sweetness enhancement of sucrose & Reb A combination by naringenin was also evaluated.

[10] = Flavor profile of non-fat plain yogurt with 5% sucrose plus naringenin of different concentrations; assay type: in vivo, human
Procedure: A Danone Non-Fat Plain Yogurt with 5% sucrose was prepared and used as the base. Different amount of naringenin was added to the base to obtain naringenin samples of a series of concentrations ranging from 10 to 1000 ppm.

[11] = pair Sucrose (0.5%) vs Naringenin (100 ppm in water), p 0.40

## O=C1CC(c2ccc(O)cc2)Oc2cc(O)cc(O)c21 (centres unmarked) [Naringenin, 2,3-dihydro-5,7-dihydroxy-2-(4-hydroxyphenyl)-4H-1-benzopyran-4-one]
[1]; in aqueous solutions
  solubility: sparingly soluble
[1]; in ethanol, ether, oils (e.g., olive oil or citrus oil) and supercritical carbon dioxide
  solubility: soluble
[2]
  sweetness enhancement: enhanced sweetness with an impact up front
[3]; Reb A water solution (10 ppm)
  concentration at which naringenin exhibited sweetness enhancement: ≥ 50 ppm
  concentration at which undesirable off-notes developed: 750 ppm
[3]; Sample 2, naringenin 10 ppm in Reb A water solution (10 ppm)
  Flavor Profile: Same as that of the base
[3]; Sample 3, naringenin 50 ppm in Reb A water solution (10 ppm)
  Flavor Profile: Very minor increase in sweetness
[3]; Sample 4, naringenin 75 ppm in Reb A water solution (10 ppm)
  Flavor Profile: Slightly more increase in sweetness
[3]; Sample 5, naringenin 100 ppm in Reb A water solution (10 ppm)
  Flavor Profile: Clear increase in sweetness with an impact up
[3]; Sample 6, naringenin 250 ppm in Reb A water solution (10 ppm)
  Flavor Profile: Intense sweetness with a stronger impact up
[3]; Sample 7, naringenin 500 ppm in Reb A water solution (10 ppm)
  Flavor Profile: Intense sweetness with a strong impact up front
[3]; Sample 8, naringenin 750 ppm in Reb A water solution (10 ppm)
  Flavor Profile: More intense sweetness with increased waxy
[4]; naringenin 100 ppm in combination with a 4% sucrose solution
  sweetness enhanced to a level of a sucrose solution: 4.8%
[4]; naringenin 100 ppm in water alone
  intrinsic sweetness, approximate level of a sucrose solution: ~0.5%
[4]; naringenin 100 ppm with 4% sucrose solution
  enhancement of sucrose sweetness: more than an additive effect
[4]; [11]
  Number of Samples Rated Sweeter: 16
[5]
  sweetness enhancement: enhanced sweetness with an impact up front
[6]; naringenin 100 ppm
  enhancement of Reb A sweetness: significantly enhanced
[6]; naringenin 100 ppm with 100 ppm Reb A, ppm of Reb A
  enhancement compared with that provided by additional Reb A: < 40 ppm
[7]; U.S. Publication No. 2009/0004360
  aftertaste modifier effect: decreases the perception of bitterness or undesirable flavor
[7]; in vivo
  taste of naringenin itself: weak to no sweet taste
[7]; tested up to a concentration of 10 ppm, U.S. Publication No. 2014/0170082
  taste and flavor performance: exhibits bitterness and unpleasant aftertaste, and performs poorly on flavor
[8]
  sweetness enhancement: enhanced sweetness with an impact up front
[9]; naringenin 100 ppm
  enhancement of the sweetness of sucrose & Reb A combination: significantly enhanced
[9]; naringenin 100 ppm with Reb A (10 ppm) + Sucrose (4%), ppm of Reb A
  enhancement compared with that achieved by Reb A: > 20 ppm
[10]; Sample 2, naringenin 10 ppm in yogurt with 5% sucrose
  Flavor Profile: Same as the base
[10]; Sample 3, naringenin 50 ppm in yogurt with 5% sucrose
  Flavor Profile: Minor increase in sweetness
[10]; Sample 4, naringenin 75 ppm in yogurt with 5% sucrose
  Flavor Profile: Slightly more increase in sweetness
[10]; Sample 5, naringenin 100 ppm in yogurt with 5% sucrose
  Flavor Profile: Clear increase in sweetness
[10]; Sample 6, naringenin 250 ppm in yogurt with 5% sucrose
  Flavor Profile: More intense and full-body sweetness
[10]; Sample 7, naringenin 500 ppm in yogurt with 5% sucrose
  Flavor Profile: Full-body sweetness with good impact
[10]; yogurt with 5% sucrose
  concentration at which naringenin exhibited sweetness enhancement: ≥ 50 ppm
  concentration at which undesirable off-notes developed: 1000 ppm

## C=C1C[C@@]23CC[C@H]4[C@@](C)(CCC[C@@]4(C)C(=O)O[C@@H]4O[C@H](CO)[C@@H](O)[C@H](O)[C@H]4O)[C@@H]2CC[C@]1(O[C@@H]1O[C@H](CO)[C@@H](O)[C@H](O[C@@H]2O[C@H](CO)[C@@H](O)[C@H](O)[C@H]2O)[C@H]1O[C@@H]1O[C@H](CO)[C@@H](O)[C@H](O)[C@H]1O)C3 [Reb A, rebaudioside A, reference compound]
[6]; pair 140 ppm Reb A vs 100 ppm Reb A + Naringenin (100 ppm), p 0.05, significant
  Number of Samples Rated Sweeter: 19
[6]; pair Reb A (120 ppm) vs Reb A (120 ppm) + Naringenin (100 ppm), p 0.01, significant
  Number of Samples Rated Sweeter: 5

## OC[C@H]1O[C@@](CO)(O[C@H]2O[C@H](CO)[C@@H](O)[C@H](O)[C@H]2O)[C@@H](O)[C@@H]1O [Sucrose, sucrose, reference compound]
[4]; [11]
  Number of Samples Rated Sweeter: 10
[4]; pair Sucrose (4.4%) vs Sucrose (4%) + Naringenin (100 ppm), p 0.01, significant
  Number of Samples Rated Sweeter: 6
[4]; pair Sucrose (4.8%) vs Sucrose (4%) + Naringenin (100 ppm), p >0.40
  Number of Samples Rated Sweeter: 14
